In ChEMBL document CHEMBL1139426, “Design and synthesis of a metabolically stable and potent antitussive agent, a novel delta opioid receptor antagonist, TRK-851” (Bioorg Med Chem, 2008):
Activity calls are given as the source filed them. No cut-off for these calls is given here.

Key:
[1] = Metabolic stability in human liver microsomes assessed as time course of compound elimination at 1 uM by HPLC; assay type: ADME, Microsome; conditions: read-out: Ke (converted)
Rattus norvegicus [2] = assay: Antitussive activity in sc dosed Sprague-Dawley rat assessed as reduction of capsaicin-induced coughing for 3 mins administered 30 mins before capsaicin challenge relative to control; assay type: functional
Rattus norvegicus [3] = assay: Antitussive activity in ip dosed Sprague-Dawley rat assessed as reduction of capsaicin-induced coughing for 3 mins administered 30 mins before capsaicin challenge relative to control; assay type: functional
Rattus norvegicus [4] = assay: Antitussive activity in po dosed Sprague-Dawley rat assessed as inhibition of capsaicin-induced coughing for 3 mins administered 60 mins before capsaicin challenge relative to control; assay type: functional, organism-based
[5] = biological target: Delta-type opioid receptor (Mus musculus, UniProt P32300); assay: Antagonist activity at delta opioid receptor in ddy mouse vas deferens assessed as inhibition of DPDPE-induced electrically-stimulated contraction; assay type: functional, tissue-based
Chain of Delta-type opioid receptor (P32300 whole entry): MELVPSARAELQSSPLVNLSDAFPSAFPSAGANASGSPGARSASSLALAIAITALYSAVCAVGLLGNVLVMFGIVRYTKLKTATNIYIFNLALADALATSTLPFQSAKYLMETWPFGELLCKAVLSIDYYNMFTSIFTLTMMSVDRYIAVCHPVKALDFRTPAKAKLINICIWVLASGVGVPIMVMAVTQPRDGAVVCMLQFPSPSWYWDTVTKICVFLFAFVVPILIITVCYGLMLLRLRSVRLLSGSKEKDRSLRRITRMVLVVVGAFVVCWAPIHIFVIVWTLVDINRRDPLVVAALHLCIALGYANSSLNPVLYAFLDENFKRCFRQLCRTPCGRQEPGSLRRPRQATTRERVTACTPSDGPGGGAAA

[6] = biological target: Kappa-type opioid receptor (Mus musculus, UniProt P33534); assay: Antagonist activity at kappa opioid receptor in ddy mouse vas deferens assessed as inhibition of U-50,488H-induced electrically-stimulated contraction; assay type: functional, tissue-based; conditions: read-out: pA2 (converted)
Chain of Kappa-type opioid receptor (P33534 whole entry): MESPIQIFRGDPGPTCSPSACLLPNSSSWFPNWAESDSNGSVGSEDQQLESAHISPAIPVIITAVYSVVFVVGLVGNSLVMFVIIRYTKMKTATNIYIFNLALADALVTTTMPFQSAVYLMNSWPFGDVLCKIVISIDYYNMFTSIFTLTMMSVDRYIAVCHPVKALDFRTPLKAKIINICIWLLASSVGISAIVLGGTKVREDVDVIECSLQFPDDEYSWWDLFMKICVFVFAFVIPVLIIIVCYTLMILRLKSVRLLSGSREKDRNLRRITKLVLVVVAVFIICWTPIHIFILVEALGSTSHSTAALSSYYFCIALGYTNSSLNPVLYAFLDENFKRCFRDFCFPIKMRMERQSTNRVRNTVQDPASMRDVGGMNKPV

[7] = biological target: Delta-type opioid receptor (Mus musculus) (UniProt P32300); assay: Antagonist activity at delta opioid receptor in ddy mouse vas deferens assessed as inhibition of DPDPE-induced electrically-stimulated contraction at 10 nM pretreated for 20 mins; assay type: functional, tissue-based
Chain of Delta-type opioid receptor (Mus musculus) (P32300 whole entry): as the sequence (P32300 whole entry) above

[8] = biological target: Kappa-type opioid receptor (Mus musculus) (UniProt P33534); assay: Antagonist activity at kappa opioid receptor in ddy mouse vas deferens assessed as inhibition of U-50,488H-induced electrically-stimulated contraction at 10 nM pretreated for 20 mins; assay type: functional, tissue-based
Chain of Kappa-type opioid receptor (Mus musculus) (P33534 whole entry): as the sequence (P33534 whole entry) above

[9] = biological target: Mu-type opioid receptor (Mus musculus) (UniProt P42866); assay: Antagonist activity at mu opioid receptor in ddy mouse vas deferens assessed as inhibition of morphine-induced electrically-stimulated contraction at 10 nM pretreated for 20 mins; assay type: functional, tissue-based
Chain of Mu-type opioid receptor (Mus musculus) (P42866 whole entry): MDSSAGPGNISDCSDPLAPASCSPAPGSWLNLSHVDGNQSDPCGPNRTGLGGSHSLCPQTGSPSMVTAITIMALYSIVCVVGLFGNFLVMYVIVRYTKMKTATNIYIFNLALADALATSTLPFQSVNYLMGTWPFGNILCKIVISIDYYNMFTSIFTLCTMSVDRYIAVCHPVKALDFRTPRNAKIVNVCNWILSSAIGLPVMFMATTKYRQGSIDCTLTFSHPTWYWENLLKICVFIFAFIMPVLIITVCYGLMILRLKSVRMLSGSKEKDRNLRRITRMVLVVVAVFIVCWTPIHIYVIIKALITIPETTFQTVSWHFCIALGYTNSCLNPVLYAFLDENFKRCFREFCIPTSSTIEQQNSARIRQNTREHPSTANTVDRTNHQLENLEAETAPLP

Mus musculus [10] = species on record: Mus musculus; assay: Selectivity for delta opioid receptor over mu opioid receptor in ddy mouse vas deferens; assay type: tissue-based
Mus musculus [11] = species on record: Mus musculus; assay: Selectivity for delta opioid receptor over kappa opioid receptor in ddy mouse vas deferens; assay type: tissue-based
[12] = biological target: Delta-type opioid receptor (Mus musculus) (UniProt P32300); assay: Antagonist activity at delta opioid receptor in ddy mouse vas deferens assessed as ratio of DPDPE concentration that elicit equal response in absence and presence of compound; assay type: functional
[13] = biological target: Kappa-type opioid receptor (Mus musculus) (UniProt P33534); assay: Antagonist activity at kappa opioid receptor in ddy mouse vas deferens assessed as ratio of U-50,488H concentration that elicit equal response in absence and presence of compound; assay type: functional
[14] = biological target: Mu-type opioid receptor (Mus musculus) (UniProt P42866); assay: Antagonist activity at mu opioid receptor in ddy mouse vas deferens assessed as ratio of morphine concentration that elicit equal response in absence and presence of compound; assay type: functional
Rattus norvegicus [15] = assay: Antitussive activity in po dosed rat assessed as reduction of coughing; assay type: functional

| Structure (SMILES) | k el at 1 µM [1] | ED50 (Rattus norvegicus [2]) | other results |
| --- | --- | --- | --- |
| COc1ccc2c3c1O[C@H]1c4c(c5cccc6c5n4CCO6)C[C@@]4(O)[C@@H](C2)N(CC2CC2)CC[C@]314 | 0.00105 s⁻¹ |  |  |
| Oc1ccc2c3c1O[C@H]1c4c(c5ccc(Cl)c6c5n4CCC6)C[C@@]4(O)[C@@H](C2)N(CC2CC2)CC[C@]314 | 0.000483 s⁻¹ | 13.8 µg/kg |  |
| CC1(C)CCn2c3c(c4cccc1c42)C[C@@]1(O)[C@H]2Cc4ccc(O)c5c4[C@@]1(CCN2CC1CC1)[C@H]3O5 | 0.00126 s⁻¹ |  |  |
| COc1ccc2c3c(n4c2c1CCC4)[C@@H]1Oc2c(O)ccc4c2[C@@]12CCN(CC1CC1)[C@H](C4)[C@]2(O)C3 | 0.000437 s⁻¹ | 54.2 µg/kg |  |
| Cc1ccc2c3c1c1c(n3CCC2)[C@@H]2Oc3c(O)ccc4c3[C@@]23CCN(CC2CC2)[C@H](C4)[C@]3(O)C1 | 0.000565 s⁻¹ |  |  |
| Oc1ccc2c3c1O[C@H]1c4c(c5c(C(F)(F)F)ccc6c5n4CCC6)C[C@@]4(O)[C@@H](C2)N(CC2CC2)CC[C@]314 | 0.000278 s⁻¹ | 0.355 µg/kg |  |
| COc1ccc2c3c1O[C@H]1c4c(c5cc(F)cc6c5n4CCC6)C[C@@]4(O)C(C2)N(CC2CC2)CC[C@]314 | 0.00647 s⁻¹ |  | ED50 (Rattus norvegicus [3]): 4.73 µg/kg |
| Oc1ccc2c3c1O[C@H]1c4c(c5cccc6c5n4CCC6)C[C@@]4(O)[C@@H](C2)N(CC2CC2)CC[C@]314 | 0.000415 s⁻¹ | 0.2 µg/kg |  |
| Oc1ccc2c3c1O[C@H]1c4c(c5cc(C(F)(F)F)cc6c5n4CCC6)C[C@@]4(O)[C@@H](C2)N(CC2CC2)CC[C@]314 | 0.00027 s⁻¹ | > 1000 µg/kg |  |
| Oc1ccc2c3c1O[C@H]1c4c(c5c(Cl)ccc6c5n4CCC6)C[C@@]4(O)[C@@H](C2)N(CC2CC2)CC[C@]314 | 0.00045 s⁻¹ | 3.5 µg/kg |  |
| COc1ccc2c3c1c1c(n3CCC2)[C@@H]2Oc3c(O)ccc4c3[C@@]23CCN(CC2CC2)[C@H](C4)[C@]3(O)C1 | 0.000475 s⁻¹ | 8.67 µg/kg |  |
| Oc1ccc2c3c1O[C@H]1c4c(c5ccc(Br)c6c5n4CCC6)C[C@@]4(O)[C@@H](C2)N(CC2CC2)CC[C@]314 | 0.000363 s⁻¹ | 27.4 µg/kg |  |
| COc1ccc2c3c1O[C@H]1c4c(c5c(C(F)(F)F)ccc6c5n4CCC6)C[C@@]4(O)[C@@H](C2)N(CC2CC2)CC[C@]314 | 0.00228 s⁻¹ |  |  |
| Oc1ccc2c3c1O[C@H]1c4c(c5cc(F)cc6c5n4CCC6)C[C@@]4(O)[C@@H](C2)N(CC2CC2)CC[C@]314 | 0.00029 s⁻¹ | 1.7 µg/kg | Activity (Rattus norvegicus [4]): Dose-dependent effect; IC50 [5]: 8.8 µM; Kb ([5]; read-out: pA2 (converted)): 0.00145 µM; Kb [6]: 0.331 µM; Activity [7]: inactive; Activity [8]: inactive; Activity [9]: inactive; Selectivity ratio (Mus musculus [10]): > 100; Selectivity ratio (Mus musculus [11]): > 100; Ratio [12]: 7.87; Ratio [13]: 1.03; Ratio [14]: 0.98 |
| COc1ccc2c3c1O[C@H]1c4c(c5c(C)ccc6c5n4CCC6)C[C@@]4(O)[C@@H](C2)N(CC2CC2)CC[C@]314 | 0.00595 s⁻¹ |  |  |
| COc1ccc2c3c1O[C@H]1c4c(c5c(OC)ccc6c5n4CCC6)C[C@@]4(O)[C@@H](C2)N(CC2CC2)CC[C@]314 | 0.00333 s⁻¹ |  |  |
| COc1ccc2c3c1O[C@H]1c4c(c5cc(Br)cc6c5n4CCC6)C[C@@]4(O)[C@@H](C2)N(CC2CC2)CC[C@]314 | 0.0044 s⁻¹ |  |  |
| Oc1ccc2c3c1O[C@H]1c4[nH]c5ccccc5c4C[C@@]4(O)[C@@H](C2)N(CC2CC2)CC[C@]314 [NALTRINDOLE] |  |  | ED50 (Rattus norvegicus [3]): 104 µg/kg |
| COc1ccc2c3c1O[C@H]1c4c(c5cccc6c5n4CCC6)C[C@@]4(O)[C@@H](C2)N(CC2CC2)CC[C@]314.CS(=O)(=O)O | 0.00568 s⁻¹ |  | ED50 (Rattus norvegicus [3]): 2.07 µg/kg; ED50 (Rattus norvegicus [15]): 6.4 µg/kg |
| Oc1ccc2c3c1O[C@H]1c4c(c5cc(OC(F)(F)F)cc6c5n4CCC6)C[C@@]4(O)[C@@H](C2)N(CC2CC2)CC[C@]314 | 0.000152 s⁻¹ | > 1000 µg/kg |  |
| Oc1ccc2c3c1O[C@H]1c4c(c5cccc6c5n4CCO6)C[C@@]4(O)[C@@H](C2)N(CC2CC2)CC[C@]314 | 0.000557 s⁻¹ | 14 µg/kg |  |
| Oc1ccc2c3c1O[C@H]1c4c(c5cc(Br)cc6c5n4CCC6)C[C@@]4(O)[C@@H](C2)N(CC2CC2)CC[C@]314 | 0.000252 s⁻¹ | 5.05 µg/kg |  |
| COc1ccc2c3c1O[C@H]1c4c(c5cccc6c5n4CCC6(C)C)C[C@@]4(O)[C@@H](C2)N(CC2CC2)CC[C@]314 | 0.00103 s⁻¹ | 12.8 µg/kg |  |
| Oc1ccc2c3c1O[C@H]1c4c(c5cc(Cl)cc6c5n4CCC6)C[C@@]4(O)[C@@H](C2)N(CC2CC2)CC[C@]314 | 0.000295 s⁻¹ |  | ED50 (Rattus norvegicus [3]): 78.4 µg/kg |
| COc1cc2c3c(c1)c1c(n3CCC2)[C@@H]2Oc3c(O)ccc4c3[C@@]23CCN(CC2CC2)[C@H](C4)[C@]3(O)C1 | 0.000552 s⁻¹ | 2 µg/kg |  |
| Oc1ccc2c3c1O[C@H]1c4c(c5c(Br)ccc6c5n4CCC6)C[C@@]4(O)[C@@H](C2)N(CC2CC2)CC[C@]314 | 0.000618 s⁻¹ | 94.6 µg/kg |  |
